Test results from ChEMBL document CHEMBL1145874, “Discovery and SAR of novel, potent and selective protein tyrosine phosphatase 1B inhibitors” (Bioorg Med Chem Lett, 2003).

Experiments:
[1] = target: Tyrosine-protein phosphatase non-receptor type 2 (Homo sapiens, UniProt P17706); assay: Inhibition of T-cell Protein Tyrosine Phosphatase (TCPTP)
[2] = target: T1, Tyrosine-protein phosphatase non-receptor type 1 (Homo sapiens, UniProt P18031); assay: Inhibition of Protein-tyrosine phosphatase 1B (PTP1B)
T1 sequence (P18031 whole entry): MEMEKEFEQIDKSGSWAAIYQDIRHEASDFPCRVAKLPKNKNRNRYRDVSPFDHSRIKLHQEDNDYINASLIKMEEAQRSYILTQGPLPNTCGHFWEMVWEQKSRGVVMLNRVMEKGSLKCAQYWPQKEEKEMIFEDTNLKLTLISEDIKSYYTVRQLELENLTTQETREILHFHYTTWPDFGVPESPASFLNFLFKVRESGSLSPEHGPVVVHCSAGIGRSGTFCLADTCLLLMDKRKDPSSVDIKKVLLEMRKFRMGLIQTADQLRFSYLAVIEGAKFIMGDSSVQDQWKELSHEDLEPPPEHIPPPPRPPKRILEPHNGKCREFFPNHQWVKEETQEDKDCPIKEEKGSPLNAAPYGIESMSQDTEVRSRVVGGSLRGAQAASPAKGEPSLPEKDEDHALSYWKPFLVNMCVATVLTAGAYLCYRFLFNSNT

[3] = target: T2, M-phase inducer phosphatase 3 (Homo sapiens, UniProt P30307); assay: Inhibitory potency against Cell division cycle 25 degree C
T2 sequence (P30307 whole entry): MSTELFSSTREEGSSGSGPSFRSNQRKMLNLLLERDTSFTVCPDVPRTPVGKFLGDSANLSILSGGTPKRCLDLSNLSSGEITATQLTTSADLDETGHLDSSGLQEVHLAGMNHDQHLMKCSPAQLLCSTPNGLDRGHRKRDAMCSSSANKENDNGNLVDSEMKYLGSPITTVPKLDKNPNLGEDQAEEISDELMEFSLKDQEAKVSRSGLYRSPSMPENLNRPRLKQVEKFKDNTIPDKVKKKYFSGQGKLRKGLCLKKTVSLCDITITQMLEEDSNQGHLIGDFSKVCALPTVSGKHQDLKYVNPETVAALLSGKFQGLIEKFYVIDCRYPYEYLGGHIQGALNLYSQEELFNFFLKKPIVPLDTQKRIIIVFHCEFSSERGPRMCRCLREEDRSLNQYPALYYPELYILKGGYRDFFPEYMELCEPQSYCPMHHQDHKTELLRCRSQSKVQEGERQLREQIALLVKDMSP

[4] = target: T3, Tyrosine-protein phosphatase non-receptor type 11 (Homo sapiens, UniProt Q06124); assay: Inhibitory potency against Tyrosine phosphatase SHP2
T3 sequence (Q06124 whole entry): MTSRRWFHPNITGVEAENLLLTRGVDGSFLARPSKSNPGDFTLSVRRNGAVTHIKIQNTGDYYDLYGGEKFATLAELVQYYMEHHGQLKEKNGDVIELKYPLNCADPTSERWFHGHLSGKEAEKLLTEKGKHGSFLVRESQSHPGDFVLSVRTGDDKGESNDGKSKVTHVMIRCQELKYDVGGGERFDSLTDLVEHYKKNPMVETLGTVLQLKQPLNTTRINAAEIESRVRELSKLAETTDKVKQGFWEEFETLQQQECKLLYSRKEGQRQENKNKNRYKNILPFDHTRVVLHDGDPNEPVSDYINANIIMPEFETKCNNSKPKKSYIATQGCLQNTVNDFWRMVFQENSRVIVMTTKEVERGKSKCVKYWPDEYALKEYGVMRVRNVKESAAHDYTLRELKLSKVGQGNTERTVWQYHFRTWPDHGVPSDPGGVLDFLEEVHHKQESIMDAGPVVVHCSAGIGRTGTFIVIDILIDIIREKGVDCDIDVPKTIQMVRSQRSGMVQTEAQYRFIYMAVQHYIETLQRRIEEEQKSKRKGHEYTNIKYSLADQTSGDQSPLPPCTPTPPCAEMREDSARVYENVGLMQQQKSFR

[5] = target: T4, Receptor-type tyrosine-protein phosphatase C (Homo sapiens, UniProt P08575); assay: Inhibitory potency against CD45 Phosphatase
T4 sequence (P08575 whole entry): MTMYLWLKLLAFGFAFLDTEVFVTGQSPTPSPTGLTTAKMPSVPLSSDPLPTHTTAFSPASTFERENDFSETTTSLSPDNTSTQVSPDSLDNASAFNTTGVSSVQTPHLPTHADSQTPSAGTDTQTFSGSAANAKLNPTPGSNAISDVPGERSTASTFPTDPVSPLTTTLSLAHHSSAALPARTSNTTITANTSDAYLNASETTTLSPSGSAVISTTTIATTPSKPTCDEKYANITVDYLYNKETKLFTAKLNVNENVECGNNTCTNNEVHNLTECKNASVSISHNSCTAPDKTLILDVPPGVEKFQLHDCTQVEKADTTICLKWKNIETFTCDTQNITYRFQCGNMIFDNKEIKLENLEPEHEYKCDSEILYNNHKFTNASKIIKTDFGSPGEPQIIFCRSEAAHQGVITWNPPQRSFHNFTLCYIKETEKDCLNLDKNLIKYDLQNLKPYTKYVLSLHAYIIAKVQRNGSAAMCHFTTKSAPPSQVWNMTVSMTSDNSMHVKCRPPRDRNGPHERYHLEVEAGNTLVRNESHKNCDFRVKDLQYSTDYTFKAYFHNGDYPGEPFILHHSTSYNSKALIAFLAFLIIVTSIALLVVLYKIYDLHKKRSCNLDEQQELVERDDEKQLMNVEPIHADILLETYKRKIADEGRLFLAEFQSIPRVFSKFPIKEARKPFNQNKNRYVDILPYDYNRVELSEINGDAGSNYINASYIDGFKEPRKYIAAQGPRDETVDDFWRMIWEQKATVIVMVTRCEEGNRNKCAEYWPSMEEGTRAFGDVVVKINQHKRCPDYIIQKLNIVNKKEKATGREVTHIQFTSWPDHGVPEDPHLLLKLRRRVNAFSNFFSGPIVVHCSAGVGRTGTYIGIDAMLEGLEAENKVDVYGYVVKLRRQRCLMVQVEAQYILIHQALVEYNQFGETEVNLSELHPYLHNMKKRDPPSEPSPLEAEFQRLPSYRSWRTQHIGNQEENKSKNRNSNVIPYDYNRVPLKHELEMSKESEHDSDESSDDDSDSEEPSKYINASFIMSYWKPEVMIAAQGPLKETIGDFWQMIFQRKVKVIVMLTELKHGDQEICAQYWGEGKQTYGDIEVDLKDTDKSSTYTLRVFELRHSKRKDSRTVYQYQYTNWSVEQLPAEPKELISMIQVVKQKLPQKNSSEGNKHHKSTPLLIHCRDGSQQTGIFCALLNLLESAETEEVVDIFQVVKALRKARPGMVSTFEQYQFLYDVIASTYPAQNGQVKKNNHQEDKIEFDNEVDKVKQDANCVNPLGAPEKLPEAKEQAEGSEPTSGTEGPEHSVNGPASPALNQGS

[6] = target: Receptor-type tyrosine-protein phosphatase F (Homo sapiens, UniProt P10586); assay: Inhibitory potency against LAR
Sequence of Receptor-type tyrosine-protein phosphatase F (P10586 whole entry): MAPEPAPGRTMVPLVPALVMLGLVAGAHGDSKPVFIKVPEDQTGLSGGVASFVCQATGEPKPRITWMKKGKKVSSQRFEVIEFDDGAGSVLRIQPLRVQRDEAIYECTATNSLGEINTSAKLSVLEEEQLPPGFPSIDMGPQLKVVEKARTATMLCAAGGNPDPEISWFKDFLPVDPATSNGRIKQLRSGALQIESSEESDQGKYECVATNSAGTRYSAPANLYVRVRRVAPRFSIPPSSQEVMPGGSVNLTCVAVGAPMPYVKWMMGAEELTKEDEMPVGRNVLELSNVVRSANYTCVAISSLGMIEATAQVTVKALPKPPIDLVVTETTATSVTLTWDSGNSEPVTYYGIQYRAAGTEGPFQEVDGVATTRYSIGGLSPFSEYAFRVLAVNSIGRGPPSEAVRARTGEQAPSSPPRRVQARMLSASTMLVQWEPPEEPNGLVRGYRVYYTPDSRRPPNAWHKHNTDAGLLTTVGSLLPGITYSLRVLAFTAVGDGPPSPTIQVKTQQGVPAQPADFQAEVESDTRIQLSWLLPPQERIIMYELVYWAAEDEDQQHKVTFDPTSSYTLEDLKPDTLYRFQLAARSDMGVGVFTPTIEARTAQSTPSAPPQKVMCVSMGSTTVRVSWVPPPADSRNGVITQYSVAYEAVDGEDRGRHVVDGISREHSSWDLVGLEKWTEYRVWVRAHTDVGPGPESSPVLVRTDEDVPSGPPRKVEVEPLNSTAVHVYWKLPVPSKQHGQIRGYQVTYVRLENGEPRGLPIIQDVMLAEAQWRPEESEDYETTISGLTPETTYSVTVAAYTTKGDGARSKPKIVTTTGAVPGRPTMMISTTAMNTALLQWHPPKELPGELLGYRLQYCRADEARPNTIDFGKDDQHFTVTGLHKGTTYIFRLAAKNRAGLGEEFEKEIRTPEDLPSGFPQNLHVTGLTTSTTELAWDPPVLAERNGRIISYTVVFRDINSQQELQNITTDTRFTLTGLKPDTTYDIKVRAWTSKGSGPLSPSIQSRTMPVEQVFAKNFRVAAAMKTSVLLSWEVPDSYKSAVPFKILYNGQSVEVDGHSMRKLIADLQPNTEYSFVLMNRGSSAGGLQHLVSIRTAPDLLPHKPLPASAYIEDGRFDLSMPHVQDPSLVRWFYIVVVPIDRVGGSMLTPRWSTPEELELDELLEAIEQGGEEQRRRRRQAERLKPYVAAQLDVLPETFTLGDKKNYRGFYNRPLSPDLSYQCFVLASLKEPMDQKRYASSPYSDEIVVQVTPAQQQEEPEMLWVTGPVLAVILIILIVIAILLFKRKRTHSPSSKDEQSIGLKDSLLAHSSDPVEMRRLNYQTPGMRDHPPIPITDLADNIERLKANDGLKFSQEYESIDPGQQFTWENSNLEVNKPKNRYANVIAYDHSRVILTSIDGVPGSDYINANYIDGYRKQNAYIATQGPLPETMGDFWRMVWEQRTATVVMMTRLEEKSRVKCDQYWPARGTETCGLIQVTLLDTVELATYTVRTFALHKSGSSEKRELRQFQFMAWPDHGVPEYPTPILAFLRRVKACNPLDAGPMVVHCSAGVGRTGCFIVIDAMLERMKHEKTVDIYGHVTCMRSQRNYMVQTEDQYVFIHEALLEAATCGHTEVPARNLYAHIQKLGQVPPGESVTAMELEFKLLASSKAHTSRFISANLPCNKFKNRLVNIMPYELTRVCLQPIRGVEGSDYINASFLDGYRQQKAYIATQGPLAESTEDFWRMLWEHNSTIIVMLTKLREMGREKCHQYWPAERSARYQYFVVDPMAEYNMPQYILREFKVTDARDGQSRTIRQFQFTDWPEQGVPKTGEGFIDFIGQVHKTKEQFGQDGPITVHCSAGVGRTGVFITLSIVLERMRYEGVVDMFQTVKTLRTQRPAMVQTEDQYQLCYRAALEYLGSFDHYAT

Sequence of Tyrosine-protein phosphatase non-receptor type 2 (P17706 whole entry, looked up): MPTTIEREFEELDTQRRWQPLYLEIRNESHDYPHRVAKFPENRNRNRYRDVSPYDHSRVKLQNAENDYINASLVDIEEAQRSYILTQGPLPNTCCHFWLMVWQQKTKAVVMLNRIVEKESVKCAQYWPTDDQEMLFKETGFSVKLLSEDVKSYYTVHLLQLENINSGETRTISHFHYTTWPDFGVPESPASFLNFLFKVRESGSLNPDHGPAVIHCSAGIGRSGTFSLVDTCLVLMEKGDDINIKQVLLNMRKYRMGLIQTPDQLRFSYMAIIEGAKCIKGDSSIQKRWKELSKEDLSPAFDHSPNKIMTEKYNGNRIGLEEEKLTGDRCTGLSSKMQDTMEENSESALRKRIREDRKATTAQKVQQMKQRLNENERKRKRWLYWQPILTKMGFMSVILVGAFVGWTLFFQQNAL

| SMILES | Ki [1] [µM] | Ki [2] [µM] | Ki [3] [µM] | Ki [4] [µM] | Ki [5] [µM] | Ki [6] [µM] |
| --- | --- | --- | --- | --- | --- | --- |
| COC(=O)c1c(O)cccc1OCCCCNC(=O)[C@H](Cc1ccc(OCC(=O)O)c(C(=O)O)c1)NC(C)=O | 129 | 9.4 | – | – | – | – |
| COC(=O)c1c(O)cccc1OCCCCNC(=O)[C@H](Cc1ccc(OCC(=O)O)cc1)NC(=O)OC(C)(C)C | > 200 | 220 | – | – | – | – |
| CCC(CC(=O)O)N(C(=O)C(=O)O)c1ccc(C[C@H](NC(=O)OC(C)(C)C)C(=O)NCCCCOc2cccc(O)c2C(=O)OC)cc1 (stereo partly specified) | – | 1.8 | – | – | – | – |
| COC(=O)c1c(O)cccc1OCCCCNC(=O)C(Cc1ccc(OC(C(N)=O)C(=O)O)cc1)NC(=O)OC(C)(C)C (stereo unspecified) | 79.5 | 13.8 | – | – | – | – |
| CCC(CN(C(=O)C(=O)O)c1ccc(C[C@H](NC(=O)OC(C)(C)C)C(=O)NCCCCOc2cccc(O)c2C(=O)OC)cc1)C(=O)O (stereo partly specified) | 9 | 1.7 | > 30 | > 30 | > 30 | > 30 |
| COC(=O)c1c(O)cccc1OCCCCNC(=O)[C@H](Cc1ccc(N(CC(C(=O)O)c2ccccc2)C(=O)C(=O)O)cc1)NC(=O)OC(C)(C)C (stereo partly specified) | 97.8 | 15.2 | – | – | – | – |
| COC(=O)c1c(O)cccc1OCCCCNC(=O)[C@H](Cc1ccc(N(CCC(=O)O)C(=O)C(=O)O)cc1)NC(=O)OC(C)(C)C | > 200 | > 200 | – | – | – | – |
| COC(=O)c1c(O)cccc1OCCCCNC(=O)C(Cc1ccc(OC(C(=O)O)C(=O)NC2CC2)cc1)NC(=O)OC(C)(C)C (stereo unspecified) | > 200 | 8.4 | – | – | – | – |
| COC(=O)c1c(O)cccc1OCCCCNC(=O)[C@H](Cc1ccc(N(CC(C)C(=O)O)C(=O)C(=O)O)cc1)NC(=O)OC(C)(C)C (stereo partly specified) | 16.7 | 3.2 | – | – | – | – |

Further lines, results first:

| Ki [1] [µM] | Ki [2] [µM] | Ki [3] [µM] | Ki [4] [µM] | Ki [5] [µM] | Ki [6] [µM] | SMILES |
| --- | --- | --- | --- | --- | --- | --- |
| 24.8 | – | > 30 | > 30 | > 30 | > 30 | COC(=O)c1c(O)cccc1OCCCCNC(=O)C(Cc1ccc(OC(C(=O)O)C(=O)O)cc1)NC(=O)OC(C)(C)C (stereo unspecified) |
| > 30 | 2.1 | – | – | – | – | COC(=O)c1c(O)cccc1OCCCCNC(=O)[C@H](Cc1ccc(OCC(=O)O)c(C(=O)O)c1)NC(=O)OC(C)(C)C |
| 273 | 48.6 | – | – | – | – | COC(=O)c1c(O)cccc1OCCCCNC(=O)[C@H](Cc1ccc(OC(C)C(=O)O)c(C(=O)O)c1)NC(=O)OC(C)(C)C (stereo partly specified) |
| 1.97 | 0.16 | > 30 | > 30 | > 30 | > 30 | COC(=O)c1c(O)cccc1OCCCCNC(=O)[C@H](Cc1ccc(OC(C)C(=O)O)c(C(=O)O)c1)NC(=O)[C@H](Cc1ccccc1)NC(=O)OC(C)(C)C (stereo partly specified) |
